In the NIST ThermoML archive (doi:10.1016/j.tca.2016.05.007):

Test: molar heat capacity at constant pressure
Conditions: 101.33 kPa, Small (less than 1 g) adiabatic calorimetry

COc1ccc(C2(c3ccc(OC)c(C)c3)OC(=O)c3ccccc32)cc1C [3,3-bis(4-methoxy-3-methylphenyl)-1(3H)-isobenzofuranone]
Conditions	molar heat capacity at constant pressure [J/K/mol]
122.17 K, Crystal	213.95
122.52 K, Glass	216.46
124.01 K, Crystal	216.41
124.36 K, Glass	219.13
125.87 K, Crystal	218.89
126.22 K, Glass	221.66
127.75 K, Crystal	221.61
128.1 K, Glass	224.36
129.65 K, Crystal	224.19
129.99 K, Glass	227.11
131.57 K, Crystal	226.74
131.9 K, Glass	229.75
133.5 K, Crystal	229.52
133.83 K, Glass	232.44
135.45 K, Crystal	232.5
135.78 K, Glass	234.99
137.41 K, Crystal	235.25
137.74 K, Glass	237.67
139.4 K, Crystal	237.93
139.72 K, Glass	240.4
141.4 K, Crystal	240.84
141.72 K, Glass	243.28
143.41 K, Crystal	243.44
143.74 K, Glass	246.09
145.45 K, Crystal	246.17
145.77 K, Glass	248.92
147.5 K, Crystal	249.06
147.82 K, Glass	251.76
149.57 K, Crystal	252.1
149.89 K, Glass	254.31
151.66 K, Crystal	254.85
151.97 K, Glass	257.37
153.77 K, Crystal	257.6
154.07 K, Glass	260.38
155.89 K, Crystal	260.26
156.2 K, Glass	263.17
158.03 K, Crystal	263.29
158.33 K, Glass	266.05
160.19 K, Crystal	265.94
160.48 K, Glass	269
162.37 K, Crystal	268.95
162.64 K, Glass	272.01
164.56 K, Crystal	271.82
164.81 K, Glass	275.02
166.77 K, Crystal	274.83
167 K, Glass	277.98
169 K, Crystal	277.76
169.19 K, Glass	280.78
171.25 K, Crystal	280.87
171.4 K, Glass	283.98
173.51 K, Crystal	283.67
173.62 K, Glass	286.89
175.79 K, Crystal	286.71
175.85 K, Glass	289.88
178.09 K, Crystal	289.96
178.09 K, Glass	293
180.35 K, Glass	296.49
180.41 K, Crystal	293.2
182.62 K, Glass	299.4
182.75 K, Crystal	296.08
184.9 K, Glass	302.23
185.1 K, Crystal	299.36
187.19 K, Glass	305.37
187.47 K, Crystal	302.25
189.49 K, Glass	308.6
189.86 K, Crystal	305.36
191.81 K, Glass	311.72
192.26 K, Crystal	308.64
194.14 K, Glass	314.93
194.69 K, Crystal	311.89
196.48 K, Glass	318.26
197.13 K, Crystal	315.34
198.84 K, Glass	321.49
199.32 K, Crystal	317.71
201.2 K, Glass	324.99
201.85 K, Crystal	321.03
203.58 K, Glass	328.08
204.39 K, Crystal	324.18
205.97 K, Glass	331.65
206.95 K, Crystal	328.02
208.37 K, Glass	334.98
209.51 K, Crystal	331.38
210.79 K, Glass	338.72
212.09 K, Crystal	334.57
213.22 K, Glass	342.02
214.68 K, Crystal	337.96
215.66 K, Glass	345.52
217.29 K, Crystal	341.78
218.12 K, Glass	349.05
219.9 K, Crystal	345.52
220.58 K, Glass	352.67
222.52 K, Crystal	348.92
223.06 K, Glass	355.96
225.16 K, Crystal	352.6
225.55 K, Glass	359.74
227.81 K, Crystal	355.97
228.02 K, Glass	362.84
230.46 K, Glass	366.31
230.47 K, Crystal	359.41
232.95 K, Glass	369.75
233.14 K, Crystal	362.97
235.43 K, Glass	373.33
235.82 K, Crystal	366.8
237.94 K, Glass	377.18
238.52 K, Crystal	370.5
240.46 K, Glass	380.87
241.23 K, Crystal	373.97
243.01 K, Glass	384.18
243.95 K, Crystal	377.59
245.58 K, Glass	387.76
246.68 K, Crystal	381.22
248.17 K, Glass	391.43
249.42 K, Crystal	384.68
250.78 K, Glass	395.34
252.17 K, Crystal	388.51
253.42 K, Glass	399.08
254.94 K, Crystal	392.35
256.07 K, Glass	402.8
257.72 K, Crystal	395.86
258.74 K, Glass	406.86
260.51 K, Crystal	399.92
261.44 K, Glass	410.9
263.31 K, Crystal	403.6
264.16 K, Glass	414.85
266.12 K, Crystal	407.84
266.89 K, Glass	419.34
268.94 K, Crystal	412.03
269.65 K, Glass	423.9
271.78 K, Crystal	417
272.43 K, Glass	428.57
274.62 K, Crystal	419.54
275.22 K, Glass	431.8
277.48 K, Crystal	423.7
278.04 K, Glass	436.42
280.36 K, Crystal	427.79
280.88 K, Glass	440.97
282.95 K, Crystal	430.44
283.74 K, Glass	445.62
285.84 K, Crystal	434.94
286.62 K, Glass	450.63
288.75 K, Crystal	438.86
289.52 K, Glass	455.31
291.64 K, Crystal	442.83
292.44 K, Glass	460.3
294.51 K, Crystal	446.52
295.38 K, Glass	465.32
297.4 K, Crystal	449.56
298.34 K, Glass	470.91
301.33 K, Glass	473.58
303.26 K, Crystal	457.78
304.32 K, Glass	491.69
306.21 K, Crystal	461.74
307.3 K, Glass	525.07
309.18 K, Crystal	465.91
310.26 K, Glass	604.32
312.18 K, Crystal	470.02
313.23 K, Glass	614.14
315.19 K, Crystal	474.07
316.23 K, Metastable liquid	622.32
318.23 K, Crystal	478.43
319.25 K, Metastable liquid	625.96
321.28 K, Crystal	482.81
322.29 K, Metastable liquid	629.84
324.35 K, Crystal	487.1
325.35 K, Metastable liquid	633.32
327.44 K, Crystal	491.54
328.43 K, Metastable liquid	636.56
330.55 K, Crystal	495.88
331.52 K, Metastable liquid	639.81
333.68 K, Crystal	500.17
334.64 K, Metastable liquid	642.98
336.81 K, Crystal	504.57
337.78 K, Metastable liquid	646.52
339.94 K, Crystal	508.36
340.93 K, Metastable liquid	649.55
343.08 K, Crystal	512.55
344.11 K, Metastable liquid	652.75
346.25 K, Crystal	517.45
347.3 K, Metastable liquid	656.04
349.43 K, Crystal	521.7
350.51 K, Metastable liquid	659.31
352.63 K, Crystal	525.97
353.74 K, Metastable liquid	662.1
355.85 K, Crystal	530.55
356.97 K, Metastable liquid	665.61
359.09 K, Crystal	535.23
360.22 K, Metastable liquid	669.03
362.34 K, Crystal	540.42
363.49 K, Metastable liquid	672.55
365.61 K, Crystal	545.96
366.77 K, Metastable liquid	676.27
368.9 K, Crystal	551.67
370.07 K, Metastable liquid	680.12
372.2 K, Crystal	556.9
